Results reported in US8993622B2, “Antiviral compounds” (Eirium AB, priority 2010, dated 2015).

Legend:
[1] = Toxicity in the A549 cell system (XTT assay); assay type: cell-based; settings: human, A549 cells, read-out: 50% cytotoxic concentration (CC50)
Method: FIG. 3. Titration of the effect of A02 on Ad5, Ad11p and the toxic effect in A549 cells following 24 h incubation with virus and/or compound A02. […] IC50 is the concentration at which the Ad replication is inhibited by 50% as determined by qPCR and CC50 is the concentration at which the cytotoxicity is 50%, i.e. 50% of the cells are viable, as determined by the XTT assay. Error bars represent the standard deviation of the means from three independent duplicate experiments.

[2] = system: Ad5 binding to A549 cells; assay: Binding of 35S-labelled Ad5 virions to A549 cells; assay type: cell-based, human adenovirus; settings: 15 μM
Method: A549 cells were washed twice and detached from the culture flask with 0.05% EDTA in PBS, resuspended in culture medium, and allowed to recover for 1 h at 37° C. The cell suspension was centrifuged at room temperature at 450 g for 5 min and resuspended in PBS containing 1% FBS and 0.01% NaN3 (PBS-FBS-NaN3); 200,000 cells per well were dispensed in a 96-well microtiter plate (Nunc). The plate was placed on ice and the compound was added to final concentrations of 5 μM and 15 μM. The final concentration of DMSO was less than 1% in all samples. Five pg […] Ad5 virions (with labeling done as described previously by Segerman et al. 2003 (Journal of Virology 77:1157-1162)) were added per cell and the plate was incubated on ice on a rocking platform for 1 h. Following incubation the cells were washed three times with PBS-FBS-NaN3, pelleted by centrifugation at 800 g for 5 min at 4° C. and resuspended in 100 μl PBS. The suspension was transferred to scintillation tubes containing 2 ml scintillation liquid (Wallac OptiPhase HiSafe 3, PerkinElmer) and cell-associated radioactivity was measured as counts per minute (cpm) using a liquid scintillation counter (Wallac 1409).

cells = assay: Cellular toxicity of select compounds (% dead cells, CC50); assay type: cell-based; settings: 24 h
HIV integrase = HIV integrase (Human immunodeficiency virus type 1 group M subtype B, UniProt P04585); settings: US 2006/0035245; cited from earlier work

O=C(Nc1ccccc1C(=O)Nc1ccccc1C(=O)O)c1ccccc1 [Compound A02, 2-[[2-(Benzoylamino)benzoyl]amino]-benzoic acid]
CC50 at 24 h [1]: 199 µM
effect on Ad5 binding to the surface of A549 cells [2]: no effect
Toxicity at 30 μM (% dead cells after 24 h) (cells; 30 μM): 20 ± 7%
Toxicity at 60 μM (% dead cells after 24 h) (cells; 60 μM): 29 ± 3%
inhibition of HIV integrase (HIV integrase): failed to inhibit
